Reference: ChEMBL document CHEMBL3507680, “University of Dundee, Gates Library screen for HepG2 cell viability”

Assay: Human HepG2 cell viability assay in 384 well format
Type: toxicity, cell-based
Design: dose 125 nL, time 70.5 hour; cytotoxicity at 70.5 h: concentration not given beside the values
Settings: HepG2 cells, read-out: Inhibition

Compound	cytotoxicity at 70.5 h [%]
CC1CCN(CCNC(=O)c2ccn(-c3ccc(F)cc3)n2)CC1	-5.04
Cc1csc(N2CCN(C(=O)Cc3cccs3)CC2)n1	-2.84
CCOc1cc(F)ccc1NC(=O)N(C)Cc1cnn(C)c1	-5.78
CCNC(=O)NCCCn1nc2ccccn2c1=O	-9.28
Cc1ccn2ncc(C(=O)N3CCCC(n4ccnc4C)C3)c2n1 (stereo unspecified)	-2.96
CC(Cn1cccn1)NCc1csc(-c2ncccn2)n1 (stereo unspecified)	3.56
c1ccc(-c2noc(CCCN3CCCC3Cn3cccn3)n2)cc1 (stereo unspecified)	10.7
CC(Cn1cccn1)NCc1csc(COc2ccccc2)n1 (stereo unspecified)	-2.25
c1ccc(-c2nc(CN3CCCC(Cn4cncn4)C3)cs2)cc1 (stereo unspecified)	-6.56
CC(O)CN1CCC(CNCc2cccc(C(F)(F)F)c2)CC1 (stereo unspecified)	2.27
Cc1nnc(CN2CCCC(c3noc(C4CC4)n3)C2)o1 (stereo unspecified)	-4.3
CN1CCCN(C(=O)NCCNc2ncccn2)CC1	17.7
CC(C)(C)c1nc(CN2CCCC(c3noc(C4CC4)n3)C2)no1 (stereo unspecified)	-4.22
c1csc(-c2noc(CCCN3CCCC3Cn3cncn3)n2)c1 (stereo unspecified)	2.46
c1coc(-c2nc(CN3CCCC(Cn4cncn4)C3)cs2)c1 (stereo unspecified)	20.4
Cc1cccc(OCC(=O)N2CCN(C3CCOC3=O)CC2)c1C (stereo unspecified)	-2.32
CCCc1ccc(S(=O)(=O)NC(=O)CCC2CCCO2)cc1 (stereo unspecified)	3.11
COc1ccc2cc(CNCc3c(C)nn(C)c3N(C)C)ccc2c1	23
Cc1nc(-c2ccccc2)n(CC(=O)NC(C)(C)C)n1	1.44
CCC(C)(C)NC(=O)Cn1nc(C)nc1-c1ccccc1	-0.158
Cc1cccc(-c2nc(C)nn2CC(=O)NCC(C)C)c1	5.13
O=C1COc2cc(C(=O)N3CCCC(n4cccn4)C3)ccc2N1 (stereo unspecified)	-1.96
Cc1ccc(-c2nc(CN3CCCC(Cn4cncn4)C3)cs2)o1 (stereo unspecified)	6.82
O=C(NCCOC1CCCCC1)c1ccc(-c2ccco2)[nH]c1=O	15.1
Cc1csc(C2CCCN(C(=O)c3c[nH]c(C)n3)C2)n1 (stereo unspecified)	-1.13
CCc1csc(C2CCCN(C(=O)c3cc(Cl)c[nH]3)C2)n1 (stereo unspecified)	2.15

Compound	cytotoxicity at 70.5 h [%]
Cc1ccc(-c2nnc(CN3CCc4nn(C)c(=O)cc4C3)o2)cc1	3.35
CCc1nc(C2CCCN2CCCc2nc3ccccc3o2)no1 (stereo unspecified)	-0.084
O=C(NCC(F)(F)F)c1ccc(-c2ccco2)[nH]c1=O	-4.71
COc1cc(C(=O)N2CCCC(c3cc(C)[nH]n3)C2)ccc1C (stereo unspecified)	19.1
CCOCC(O)CN1CCN(C(=O)C(C)(C)CC)CC1 (stereo unspecified)	18.6
COCc1ccccc1C(=O)N1CCCC(c2cc(C)[nH]n2)C1 (stereo unspecified)	26.2
O=C(NCc1ccc(-n2cncn2)nc1)c1cc(Cl)c2c(c1)OCCO2	-3.48
COc1ccc(CC(=O)Nc2cccnc2N2CCCC2)cc1OC	-1.14
COc1ccc(CNC(=O)Nc2cccnc2OC)cc1O	22.7
O=C(Cc1ccc2c(c1)OCCO2)NCc1ccc(-n2cncn2)nc1	-2.42
Cc1ccccc1OCCC(=O)NC(C)c1nnc2n1CCCCC2 (stereo unspecified)	-2.91
Cc1cnn(CC2CN(Cc3nc(C)no3)CCO2)c1 (stereo unspecified)	-1.3
CCCN1CCN(CC(O)c2ccc(OC(F)(F)F)cc2)CC1 (stereo unspecified)	-0.084
N#Cc1ccccc1OCCN1CCCC1Cn1cncn1 (stereo unspecified)	3.66
COCCN1CCN(CC(O)c2ccc(OC(F)(F)F)cc2)CC1 (stereo unspecified)	-2.07
Cc1nn(C)c(C)c1C1CCCN1CC(=O)NCc1ccco1 (stereo unspecified)	7.36
CC(C)c1nc2n(n1)CC(NCc1ncc(C(C)(C)C)o1)CC2 (stereo unspecified)	0.95
O=C(COCCc1ccccc1)N1CCCC(n2cncn2)C1 (stereo unspecified)	1.67
COc1ccc(Cl)cc1C(=O)N1CCCC(c2cc(C)[nH]n2)C1 (stereo unspecified)	0.303
c1cnnc(N2CCCC(NCc3cccc4c3OCCO4)C2)c1 (stereo unspecified)	6.38
Cc1nn(C)c(C)c1NC(=O)CN1CCCC1c1c(C)nn(C)c1C (stereo unspecified)	-3.45
OC(CN1CCCCCCC1)c1ccc(OC(F)(F)F)cc1 (stereo unspecified)	7.33
Cc1ccc(N2CCCC(NCc3cccc4c3OCO4)C2)nn1 (stereo unspecified)	-0.527
Cc1cc(C(=O)NCc2ccc(N3CCCC(C(N)=O)C3)cc2)[nH]n1 (stereo unspecified)	-2.55
Cc1occc1C(=O)NCc1ccc(N2CCCC(C(N)=O)C2)cc1 (stereo unspecified)	-6.48
CC(Cn1cccn1)NC(=O)NCc1cccs1 (stereo unspecified)	-16.6

Compound	cytotoxicity at 70.5 h [%]
CS(=O)(=O)c1ccccc1C(=O)NCCCN1CCc2ccccc2C1	18.5
Cc1cn2c(n1)CCC(NC(=O)c1cc(Br)cn1C)C2 (stereo unspecified)	1.7
Cc1cc(OCC(=O)N2CCCC(c3ccn[nH]3)C2)no1 (stereo unspecified)	-5.93
Cc1cc(C(=O)NC2CCc3nc(C)cn3C2)[nH]n1 (stereo unspecified)	-5.51
Cc1cn2c(n1)CCC(NC(=O)c1c[nH]c(C)n1)C2 (stereo unspecified)	-5.66
Cn1nc2c(cc1=O)CN(Cc1nc(C(C)(C)C)no1)CC2	-5.46
Cc1cc(CN(C)C(=O)c2ccc(Cl)c(S(C)(=O)=O)c2)no1	13.8
COc1cccc(C(=O)NCCCN2CCc3ccccc3C2)c1OC	-11.3
Cn1cnc2c1CCN(CCS(=O)(=O)c1ccccc1)C2	-17
Cc1nc(C2CCCN(C(=O)COCc3ccccc3Cl)C2)no1 (stereo unspecified)	-7.76
Cc1nc(C)n(CC2CN(CCCOc3ccccc3C)CCO2)n1 (stereo unspecified)	11.3
COc1c(C2CCCN2Cc2c(C)noc2C)c(C)nn1C (stereo unspecified)	-5.56
O=C(C1CCN(c2snc3ccccc23)CC1)N1CCCCCC1	28.1
Cc1nn(C)c(N(C)C)c1CNCc1ccccc1CN(C)C	18.8
CCc1nnc(CNCC2CCN(CC(O)c3ccccc3)CC2)o1 (stereo unspecified)	15.4
CC(OCC1CC1)C(=O)N1CCCN(Cc2cnn(C)c2)CC1 (stereo unspecified)	24.6
CC(OCC1CC1)C(=O)N1CCCN(Cc2nccn2C)CC1 (stereo unspecified)	-11.2
COc1cc(C(=O)NC(CC(=O)O)c2cccs2)cc(Cl)c1OC (stereo unspecified)	-8.1
Cc1noc(C)c1CNCC1CCN(CC(O)c2ccccc2)CC1 (stereo unspecified)	2.35
Cc1cn2nc(N3CCCN(Cc4noc(C)n4)CC3)sc2n1	-4.93
CN(C)CC1CN(c2ncnc3[nH]ccc23)CCO1 (stereo unspecified)	5.61
Cc1ccc(NC(=O)N2CCN(Cc3noc(C4CC4)n3)CC2)cc1	27.4
Cc1cc(C)cc(NS(=O)(=O)c2cc3c(c(C(=O)O)c2)OCCO3)c1	-5.38
CCc1cccc(NS(=O)(=O)c2cc3c(c(C(=O)O)c2)OCCO3)c1	4.16
Cc1ccn2cc(C(=O)N3CCCC3c3c(C)nn(C)c3C)nc2c1 (stereo unspecified)	-7.44
Cc1cc(C(=O)N2CCc3nnc(N)cc3C2)c(C)n1-c1cccnc1	-1.23

Compound	cytotoxicity at 70.5 h [%]
O=C(C1CCC1)N1CCN(c2snc3ccccc23)CC1	44.7
CC(C)(O)CN1CCN(C(=O)c2sccc2C2CC2)CC1	-6.03
COc1ccc(COCC(O)CNC(=O)c2cnc(C)cn2)cc1 (stereo unspecified)	-8.25
CC(C)n1ccnc1CN1CCCN(C(=O)CC2C=CCC2)CC1 (stereo unspecified)	31.4
Cc1cnn(CCNCc2ccccc2OCc2cccnc2)c1	-3.61
CC(NCc1cccnc1)c1ccc(OCC(=O)NC2CC2)cc1 (stereo unspecified)	-8.83
Cc1csc(N2CCCN(Cc3noc(C)n3)CC2)n1	-1.5
CCn1ncc2c1CCCC2NCc1cccc2c1OCCO2 (stereo unspecified)	-13.8
Cc1nc(CN2CCCN(C(=O)C(C)OCC3CC3)CC2)cs1 (stereo unspecified)	-8.36
CC(=O)Nc1nc(C(=O)NCc2ccc(N3CCCCCC3)nc2)cs1	7.57
Cc1ccc(-c2nc(CN3CCN(S(=O)(=O)N(C)C)CC3)cs2)o1	1.51
CCNC(=O)C1CCN(Cc2csc(-c3ccc(C)o3)n2)CC1	0.934
CCn1cnnc1CNC(=O)c1ccc(Cl)cc1F	-4.7
CC(NC(=O)NCCCN(C)S(C)(=O)=O)c1cccc(Cl)c1 (stereo unspecified)	-7.23
CC(NC(=O)NCCCN(C)S(C)(=O)=O)c1ccncc1 (stereo unspecified)	-3.33
CC(=O)c1cccc(S(=O)(=O)N2CSCC2C(=O)NCC(F)(F)F)c1 (stereo unspecified)	5.48
O=C(NCC(F)(F)F)C1CSCN1S(=O)(=O)c1ccc(F)cc1 (stereo unspecified)	-4.65
O=C(Cc1csc(-c2ccco2)n1)N1CCN(c2cnccn2)CC1	1.22
CC(=O)Nc1nc(C(=O)Nc2ccc(N3CCCCC3)nc2)cs1	13.7
COC(=O)C(c1cc(F)ccc1F)N(C)C(=O)c1ccnc(C)n1 (stereo unspecified)	1.49
c1ccc(Cn2ccnc2CN2CCOC(Cn3cccn3)C2)cc1 (stereo unspecified)	2.05
Cn1cc(C(=O)NCC2CCN(C(=O)NCC(F)(F)F)CC2)cn1	2.26
Cc1nn(C)c(C)c1CNCc1ccc(N2CCOCC2)nc1	3.85
